In article PMC6556873, “Rapid Covalent-Probe Discovery by Electrophile-Fragment Screening” (Journal of the American Chemical Society, 2019):
Like-named read-outs stand apart in the source and are kept apart here.

What was measured:
in vitro [1] = assay: in vitro; set-up: species or system HB2, CCD841; details: human, hek293 cells
PCAF = target: T1, PCAF (Homo sapiens, UniProt Q92831); set-up: Intact protein LC/MS covalent labelling, fragments in pools of five, 200 uM each, 4 °C; details: 24 h, 4 °C, pool of five; 200 µM; covalent
T1 construct: gene KAT2B

NNMT (hNNMT) = target: T2, NNMT (hNNMT) (Homo sapiens, UniProt P40261); set-up: Intact protein LC/MS covalent labelling, fragments in pools of five, 200 uM each, 4 °C; details: 24 h, 4 °C, pool of five; 200 µM; covalent
T2 construct: wild type, N-terminal His6 tag kept (no cleavage described), E. coli, construct 31248 Da
T2 sequence (P40261 1-264): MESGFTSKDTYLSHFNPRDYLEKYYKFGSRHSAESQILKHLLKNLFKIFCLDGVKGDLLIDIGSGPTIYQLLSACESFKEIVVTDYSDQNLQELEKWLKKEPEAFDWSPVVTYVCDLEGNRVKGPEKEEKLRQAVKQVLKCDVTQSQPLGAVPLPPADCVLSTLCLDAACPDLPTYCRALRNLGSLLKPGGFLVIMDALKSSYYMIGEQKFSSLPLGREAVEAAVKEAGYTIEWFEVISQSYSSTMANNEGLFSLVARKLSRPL

BSA = target: T3, BSA (Bos taurus, UniProt P02769); set-up: Intact protein LC/MS covalent labelling, fragments in pools of five, 200 uM each, 4 °C; details: 24 h, 4 °C, pool of five; 200 µM; covalent
T3 construct: gene ALB

NUDT7 = target: T4, NUDT7 (Homo sapiens, UniProt P0C024); set-up: Intact protein LC/MS covalent labelling, fragments in pools of five, 200 uM each, 4 °C; details: 24 h, 4 °C, pool of five; 200 µM; covalent
T4 construct: residues 14-235, E. coli, pNIC28-Bsa4, N-terminal His6 tag removed by TEV, construct 26672 Da

OTUB2 (OTUB2A) = target: T5, OTUB2 (OTUB2A) (Homo sapiens, UniProt Q96DC9); set-up: Intact protein LC/MS covalent labelling, fragments in pools of five, 200 uM each, 4 °C; details: 24 h, 4 °C, pool of five; 200 µM; covalent
T5 construct: full length residues 1-234, E. coli BL21(DE3)-R3, His tag removed by TEV, construct 27312 Da
T5 sequence (Q96DC9 1-234): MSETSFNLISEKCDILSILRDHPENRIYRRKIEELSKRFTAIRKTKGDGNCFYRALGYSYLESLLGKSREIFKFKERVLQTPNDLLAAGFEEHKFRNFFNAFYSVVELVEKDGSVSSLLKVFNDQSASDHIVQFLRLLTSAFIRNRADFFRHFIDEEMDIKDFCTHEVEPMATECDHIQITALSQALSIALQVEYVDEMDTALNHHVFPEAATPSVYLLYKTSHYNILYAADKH

in vitro [2] = assay: in vitro; set-up: species or system HB2, HEK293; details: human, ccd841 cells
in vitro [3] = assay: in vitro; set-up: species or system CCD841, HEK293; details: human, hb2 cells, read-out: HB-2 Cells Viability (%)

T4 sequence (P0C024 14-235): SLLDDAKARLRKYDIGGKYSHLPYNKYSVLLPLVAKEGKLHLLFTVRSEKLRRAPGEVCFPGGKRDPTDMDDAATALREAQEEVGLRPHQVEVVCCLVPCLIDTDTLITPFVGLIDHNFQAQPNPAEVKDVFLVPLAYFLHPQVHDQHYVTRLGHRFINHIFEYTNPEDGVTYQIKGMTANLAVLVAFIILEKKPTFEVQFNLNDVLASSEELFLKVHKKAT
T1 sequence (Q92831 whole entry, the tested form may be a part): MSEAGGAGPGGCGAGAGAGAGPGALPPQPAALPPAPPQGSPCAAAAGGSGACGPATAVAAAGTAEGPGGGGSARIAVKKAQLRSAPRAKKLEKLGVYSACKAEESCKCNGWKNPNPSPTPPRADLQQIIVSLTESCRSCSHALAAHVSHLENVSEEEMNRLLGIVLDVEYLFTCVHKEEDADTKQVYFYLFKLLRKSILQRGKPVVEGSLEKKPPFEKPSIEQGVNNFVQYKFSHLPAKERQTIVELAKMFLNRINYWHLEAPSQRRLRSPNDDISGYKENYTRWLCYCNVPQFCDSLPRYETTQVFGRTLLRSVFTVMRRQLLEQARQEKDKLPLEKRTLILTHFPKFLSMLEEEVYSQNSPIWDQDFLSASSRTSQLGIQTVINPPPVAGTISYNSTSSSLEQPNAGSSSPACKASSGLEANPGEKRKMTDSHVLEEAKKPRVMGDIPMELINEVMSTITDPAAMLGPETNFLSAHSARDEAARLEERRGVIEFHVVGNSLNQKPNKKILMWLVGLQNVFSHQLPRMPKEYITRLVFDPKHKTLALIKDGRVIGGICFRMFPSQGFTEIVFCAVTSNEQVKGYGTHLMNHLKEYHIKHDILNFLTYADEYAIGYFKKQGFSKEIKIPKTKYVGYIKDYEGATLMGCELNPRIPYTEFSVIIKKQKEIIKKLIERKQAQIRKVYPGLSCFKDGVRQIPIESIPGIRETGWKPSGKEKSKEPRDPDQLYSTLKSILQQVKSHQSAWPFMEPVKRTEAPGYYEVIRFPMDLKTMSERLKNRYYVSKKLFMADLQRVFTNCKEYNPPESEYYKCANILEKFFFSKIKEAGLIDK
T3 sequence (P02769 whole entry, the tested form may be a part): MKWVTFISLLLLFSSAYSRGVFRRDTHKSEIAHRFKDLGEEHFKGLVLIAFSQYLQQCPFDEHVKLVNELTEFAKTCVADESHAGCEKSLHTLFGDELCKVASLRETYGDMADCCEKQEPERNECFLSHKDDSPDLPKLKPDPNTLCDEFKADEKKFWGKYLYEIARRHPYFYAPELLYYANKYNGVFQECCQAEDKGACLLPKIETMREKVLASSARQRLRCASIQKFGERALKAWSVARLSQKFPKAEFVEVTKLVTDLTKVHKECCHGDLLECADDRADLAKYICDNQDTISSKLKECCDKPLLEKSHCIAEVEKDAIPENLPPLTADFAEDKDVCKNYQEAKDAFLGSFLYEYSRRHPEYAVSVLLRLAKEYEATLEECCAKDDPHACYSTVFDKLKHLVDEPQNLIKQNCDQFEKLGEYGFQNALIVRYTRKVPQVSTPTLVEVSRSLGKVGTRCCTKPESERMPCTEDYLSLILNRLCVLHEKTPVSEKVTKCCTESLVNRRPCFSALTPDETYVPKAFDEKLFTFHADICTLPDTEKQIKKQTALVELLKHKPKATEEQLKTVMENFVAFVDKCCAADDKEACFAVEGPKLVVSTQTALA

| SMILES | PCAF (PCAF) | NNMT (NNMT (hNNMT)) | BSA (BSA) | NUDT7 (NUDT7) | OTUB2 (OTUB2 (OTUB2A)) | viability at 48 h, 10 µM (in vitro [1]) [%] | viability at 48 h, 10 µM (in vitro [2]) [%] | viability at 48 h, 10 µM (in vitro [3]) [%] |
| --- | --- | --- | --- | --- | --- | --- | --- | --- |
| C=CC(=O)Nc1cc(F)ccc1C [PCM-0102917] | 0 | 0 | 0 | 0 | 0 | 76.3 | 106 | 103 |
| C=CC(=O)N1CCC(Oc2cnc3ccccc3n2)CC1 [PCM-0102925] | 0 | 0 | 0 | 0 | 0 | 86.8 | 102 | 107 |
| COc1ccc(C2=CCN(C(=O)CCl)CC2)cc1 [PCM-0102929] | 0 | 0.22 | 0 | 0.45 | 0 | 71 | 90.4 | 59.4 |
| O=C(CCl)NC1CCN(C(=O)C2CCCCC2)CC1 [PCM-0102931] | 0 | 0 | 0 | 0 | 0.09 | 118 | 78.6 | 82.9 |
| CN(Cc1ccc(F)cc1)C(=O)CCl [PCM-0102939] | 0 | 0 | 0 | 0 | 0.1 | 42.7 | 69.2 | 34.8 |
| O=C(CCl)N1CCOC1=O [PCM-0102943] | 0 | 0 | 0 | 0.08 | 0 | 108 | 109 | 101 |
| Cc1nc(C2(NC(=O)CCl)CCCCCC2)no1 [PCM-0102944] | 0 | 0 | 0 | 0 | 0 | 129 | 113 | 103 |
| C=CC(=O)NCC1CCCc2sc(C)nc21 (centres unmarked) [PCM-0102952] | 0 | 0 | 0 | 0 | 0 | 95.2 | 114 | 97.6 |
| CN(Cc1ccc2c(c1)OCCO2)C(=O)CCl [PCM-0102958] | 0 | 0 | 0 | 0.27 | 0.09 | 52 | 81 | 74.4 |
| Cc1ccc(C(=O)N2CCN(C(=O)CCl)CC2)cc1 [PCM-0102962] | 0 | 0 | 0 | 0 | 0 | 15.6 | 75.3 | 30.1 |
| C=CC(=O)N1CCCN(c2ccc(-c3ccccc3)nn2)CC1 [PCM-0102964] | 0 | 0 | 0 | 0 | 0 | 87.2 | 103 | 102 |
| O=C(CCl)N1CCC(C(=O)N2CCCCC2)CC1 [PCM-0102972] | 0 | 0 | 0 | 0 | 0.08 | 76.6 | 106 | 84.6 |
| O=C(CCl)N1CCCC1=O [PCM-0102982] | 0 | 0 | 0 | 0 | 0 | 114 | 101 | 111 |
| Cc1nc(C2(NC(=O)CCl)CCCCC2)no1 [PCM-0102983] | 0 | 0 | 0 | 0.1 | 0 | 99.7 | 112 | 102 |
| CN(Cc1ccccc1)C(=O)CCl [PCM-0102984] | 0 | 0 | 0 | 0.11 | 0 | 55.2 | 91.6 | 78.6 |
| C=CC(=O)N1CCC(C(=O)c2cccs2)CC1 [PCM-0102989] | 0 | 0 | 0 | 0 | 0 | 102 | 97.9 | 97.7 |

Continued, in another order:

| PCAF (PCAF) | NNMT (NNMT (hNNMT)) | BSA (BSA) | NUDT7 (NUDT7) | OTUB2 (OTUB2 (OTUB2A)) | SMILES | viability at 48 h, 10 µM (in vitro [1]) [%] | viability at 48 h, 10 µM (in vitro [2]) [%] | viability at 48 h, 10 µM (in vitro [3]) [%] |
| --- | --- | --- | --- | --- | --- | --- | --- | --- |
| 0 | 0.69 | 0 | 0 | 0 | O=C(CCl)NC(=O)Nc1ccc2c(c1)OCCCO2 [PCM-0102910] | 81 | 67.2 | 67.5 |
| 0 | 0.11 | 0.11 | 0.17 | 0 | COC(=O)c1cc(Cl)cc(Cl)c1NC(=O)CCl [PCM-0102912] | 106 | 90.6 | 97 |
| 0 | 0.56 | 0 | 0.39 | 0 | CC(=O)c1oc2ccccc2c1NC(=O)CCl [PCM-0102918] | 36.8 | 65.3 | 42.4 |
| 0 | 0 | 0 | 0 | 0.07 | CC(=O)N1CCC(NC(=O)CCl)CC1 [PCM-0102932] | 88 | 85.9 | 95.1 |
| 0 | 0 | 0 | 0 | 0.32 | N#Cc1cccc(CNC(=O)CCl)c1 [PCM-0102936] | 83.1 | 94.9 | 97.1 |
| 0 | 0 | 0 | 0 | 0 | Cl.O=C(CCl)NCc1ccccn1 [PCM-0102950] | 97.4 | 109 | 100 |
| 0 | 0.78 | 0 | 0.27 | 0.14 | Cc1ccc(NC(=O)CCl)cc1Br [PCM-0102955] | 38.3 | 71.2 | 41.5 |
| 0 | 0 | 0 | 0.51 | 0 | C=CC(=O)Nc1ccccc1C(=O)OC [PCM-0102967] | 68.8 | 81 | 90.2 |
| 0 | 0 | 0 | 0 | 0 | COC(=O)C1CCN(C(=O)CCl)CC1 [PCM-0102978] | 99.4 | 110 | 100 |
